This is an account of results in article PMC8729770, “In Vitro Evaluation of Antimicrobial Peptides from the Black Soldier Fly (Hermetia Illucens) against a Selection of Human Pathogens” (Microbiology Spectrum, 2022).

In assay [1] the test system is MRC5-SV2 cell line of human, embryonic lung fibroblasts. Description: Cytotoxicity screening of the peptide library. It is filed as cell-based. Particulars: 72 h, 37°C, resazurin fluorescence. As for the experimental part: To determine early signs of peptide toxicity, the library was tested against the MRC5-SV2 cell line of human, embryonic lung fibroblasts (Sigma-Aldrich). Peptides were serially diluted in 96-well plates as described earlier at concentrations ranging from 64 μM to 0.25 μM for the first screening, and from 32 μM to 0.016 μM for the independent repeat. Tamoxifen (Sigma-Aldrich) was included as a reference compound. After preparation of the test plates, cell suspension (190 μL) of 1.5 × 10^5 cells/mL in complete minimum essential medium (Gibco) was added to the peptides. Plates were incubated for 72 h at 37°C in a 5% CO2 incubator (Binder). Afterwards, 50 μL of a 0.01% (wt/vol) resazurin (Sigma-Aldrich) solution was added to the wells to detect cell viability.

Assay [2] has as its system S. aureus ATCC 6538. It is filed as cell-based, Staphylococcus aureus. The settings on record: 16 h; for IC50: MHB, 37°C, resazurin, 50% growth inhibition; for MIC S. aureus ATCC 6538: determined visually. The procedure: (§1) To detect antimicrobial activity of the BSF AMPs, the peptide library underwent screening against a panel of microorganisms, consisting of S. aureus ATCC 6538, E. coli ATCC 8739, P. aeruginosa ATCC 9027, C. albicans B59630, and A. fumigatus B42928. Serial dilutions of the peptides were prepared from the DMSO stock solutions in sterile demineralized water in 96-well plates using an automated liquid-handling workstation (Beckman Coulter Biomek 3000) in end volumes of 10 μL. The final in-plate concentration of DMSO was <1%. Peptide concentrations ranged from 64 μM to 0.25 μM for the first evaluation, and from 32 μM to 0.016 μM for the independent repeat. As references, doxycycline (Sigma-Aldrich; S. aureus, E. coli, P. aeruginosa), flucytosine (Sigma-Aldrich; C. albicans), and econazole (Sigma-Aldrich; A. fumigatus) were used. Suspensions of a starting inoculum of 5 × 10^3 CFU/mL (E. coli, S. aureus, C. albicans, A. fumigatus) and 5 × 10^4 CFU/mL (P. aeruginosa) were prepared in MHB (bacterial species) or RPMI medium (fungal species) and 190 μL was added to the 96-well plates. Plates were incubated for 16 h (E. coli, S. aureus, P. aeruginosa), 24 h (C. albicans), or 48 h (A. fumigatus) at 37°C. After incubation, read-out of the antimicrobial activity was performed using a resazurin assay. Then, 20 μL of a 0.01% (wt/vol) resazurin (Sigma-Aldrich) solution was added to each well and plates were incubated for 15 min (S. aureus), 30 min (E. coli), 45 min (P. aeruginosa), 4 h (C. albicans), or 17 h (A. fumigatus) to allow resazurin reduction to take place. Fluorescence was read using a microplate reader (Telix) at λexcitation = 550 nm and λemission = 590. […] MIC values were determined visually. Medium in the wells with no visual growth was plated on MHA to detect the MBC, defined as ≥3 log reduction compared with the growth control.
In general terms: Resazurin is reduced to fluorescent resorufin, in cell work by metabolically active cells.

The test system of assay [3] is E. coli ATCC 8739. Format: cell-based, Escherichia coli. Particulars: for IC50: MHB, 37°C, resazurin; for IC50 / MIC E. coli ATCC 8739: 16 h; for MIC E. coli ATCC 8739: determined visually. As for the experimental part:
as §1

Assay [4] has as its system P. aeruginosa ATCC 9027. It is filed as cell-based, Pseudomonas aeruginosa. Particulars: for IC50: MHB, 37°C, resazurin; for IC50 / MIC P. aeruginosa ATCC 9027: 16 h; for MIC P. aeruginosa ATCC 9027: determined visually; for MBC P. aeruginosa ATCC 9027: plated on MHA, ≥3 log reduction vs growth control. The procedure:
as §1

The test system of assay [5] is C. albicans B59630. Format: cell-based, Candida albicans. Particulars: RPMI, 24 h, 37°C, resazurin. As for the experimental part: as §1
The subject of assay [6] is A. fumigatus B42928. Format: cell-based, Aspergillus fumigatus. Particulars: RPMI, 48 h, 37°C, resazurin. As for the experimental part: as §1
Where [7] appears, read: repeat 1, first screening 64-0.25 μM.
[8] abbreviates: repeat 2, independent repeat 32-0.016 μM.

Where two headings read alike, the source gives them in different places.

In general, IC50 refers to the point on the concentration scale where inhibition reaches its midpoint. Low values mean inhibition by little substance, high ones a need for much substance.

Take “LSCLFENQAVSAIACGASCITRKGKRGGWCSNGVCRCTPN [Hill-Def6, Defensin without disulfide bridges]”: the concentration for half-maximal inhibition (IC50) was > 64 µM in assay [1] (setting [7]); > 32 µM in assay [1] (setting [8]); > 64 µM in assay [2] (repeat 1, 64-0.25 μM); > 32 µM in assay [2] (repeat 2, 32-0.016 μM); > 64 µM in assay [3] (repeat 1, 64-0.25 μM); > 32 µM in assay [3] (repeat 2, 32-0.016 μM). The half-inhibitory concentration (IC50) in assay [4] (repeat 1, 64-0.25 μM) was > 64 µM; in assay [4] (repeat 2, 32-0.016 μM), > 32 µM; in assay [5] (repeat 1, 64-0.25 μM), > 64 µM; in assay [5] (repeat 2, 32-0.016 μM) it was > 32 µM; in assay [6] (repeat 1, 64-0.25 μM) it was > 64 µM; in assay [6] (repeat 2, 32-0.016 μM), > 32 µM. Also, the “MIC S. aureus ATCC 6538” value in assay [2] (repeat 1, 64-0.25 μM) was > 64.00 µM; in assay [2] (repeat 2, 32-0.016 μM) it was > 32.00 µM. The “MIC E. coli ATCC 8739” value in assay [3] (repeat 1, 64-0.25 μM) is > 64.00 µM; in assay [3] (repeat 2, 32-0.016 μM), > 32.00 µM. Besides, the “MIC P. aeruginosa ATCC 9027” value in assay [4] (repeat 1, 64-0.25 μM) is > 64.00 µM; in assay [4] (repeat 2, 32-0.016 μM) it was > 32.00 µM.

As to “DQSKEPFKPMERPYQRVRDAKIQGITIAQNGPNVLAITRGGLEQ [Hill-Cec6, Cecropin, C-terminal amidation]”, the IC50 in assay [1] (setting [7]) is > 64 µM; in assay [1] (setting [8]), > 32 µM; in assay [2] (repeat 1, 64-0.25 μM), > 64 µM; in assay [2] (repeat 2, 32-0.016 μM), > 32 µM; in assay [3] (repeat 1, 64-0.25 μM), > 64 µM; in assay [3] (repeat 2, 32-0.016 μM) it was > 32 µM. For the same sequence, the IC50 in assay [4] (repeat 1, 64-0.25 μM) was > 64 µM; in assay [4] (repeat 2, 32-0.016 μM), > 32 µM; in assay [5] (repeat 1, 64-0.25 μM) it was > 64 µM; in assay [5] (repeat 2, 32-0.016 μM), > 32 µM; in assay [6] (repeat 1, 64-0.25 μM) it was > 64 µM; in assay [6] (repeat 2, 32-0.016 μM), > 32 µM. For the same sequence, the “MIC S. aureus ATCC 6538” value in assay [2] (repeat 1, 64-0.25 μM) was > 64.00 µM; in assay [2] (repeat 2, 32-0.016 μM), > 32.00 µM. Moreover, the “MIC E. coli ATCC 8739” value was > 32.00 µM in assay [3] (repeat 1, 64-0.25 μM) and > 64.00 µM in assay [3] (repeat 2, 32-0.016 μM). Moreover, in assay [3] (repeat 2, plated on MHA, ≥3 log reduction vs growth control), the “MBC E. coli ATCC 8739” value amounted to 2.00 µM. Also, the “MIC P. aeruginosa ATCC 9027” value in assay [4] (repeat 1, 64-0.25 μM) is > 32.00 µM. Moreover, the figures for the “MBC P. aeruginosa ATCC 9027” value in assay [4] (repeat 1) and in assay [4] (repeat 2) were 16.00 µM and 2.00 µM, respectively.

On to “QLPCDYLSGLGFGEDACNTDCIAKGHKSGFCTGLVCRCRTL [Hill-Def8, Defensin without disulfide bridges]”, for which the half-maximal inhibitory concentration (IC50) was > 64 µM in assay [1] (setting [7]); > 32 µM in assay [1] (setting [8]); > 64 µM in assay [2] (repeat 1, 64-0.25 μM); > 32 µM in assay [2] (repeat 2, 32-0.016 μM); > 64 µM in assay [3] (repeat 1, 64-0.25 μM); > 32 µM in assay [3] (repeat 2, 32-0.016 μM). Moreover, the half-maximal inhibitory concentration (IC50) is > 64 µM in assay [4] (repeat 1, 64-0.25 μM); > 32 µM in assay [4] (repeat 2, 32-0.016 μM); > 64 µM in assay [5] (repeat 1, 64-0.25 μM); > 32 µM in assay [5] (repeat 2, 32-0.016 μM); > 64 µM in assay [6] (repeat 1, 64-0.25 μM); > 32 µM in assay [6] (repeat 2, 32-0.016 μM). Further, the “MIC S. aureus ATCC 6538” value in assay [2] (repeat 1, 64-0.25 μM) was > 64.00 µM; in assay [2] (repeat 2, 32-0.016 μM) it was > 32.00 µM. For the same sequence, the “MIC E. coli ATCC 8739” value in assay [3] (repeat 1, 64-0.25 μM) was > 64.00 µM; in assay [3] (repeat 2, 32-0.016 μM), > 32.00 µM. In addition, the “MIC P. aeruginosa ATCC 9027” value in assay [4] (repeat 1, 64-0.25 μM) was > 64.00 µM; in assay [4] (repeat 2, 32-0.016 μM), > 32.00 µM.

“ATCTNWNCRTQCIARGKRGGYCVERNICKCTS [Hill-Def3, Defensin without disulfide bridges]”: the IC50 in assay [1] (setting [7]) was > 64 µM; in assay [1] (setting [8]), > 32 µM; in assay [2] (repeat 1, 64-0.25 μM), > 64 µM; in assay [2] (repeat 2, 32-0.016 μM) it was > 32 µM; in assay [3] (repeat 1, 64-0.25 μM), > 64 µM; in assay [3] (repeat 2, 32-0.016 μM), > 32 µM. For the same sequence, the 50% inhibitory concentration (IC50) is > 64 µM in assay [4] (repeat 1, 64-0.25 μM); > 3 µM in assay [4] (repeat 2, 32-0.016 μM); > 64 µM in assay [5] (repeat 1, 64-0.25 μM); > 32 µM in assay [5] (repeat 2, 32-0.016 μM); > 64 µM in assay [6] (repeat 1, 64-0.25 μM); > 32 µM in assay [6] (repeat 2, 32-0.016 μM). For the same sequence, the “MIC S. aureus ATCC 6538” value was > 64.00 µM in assay [2] (repeat 1, 64-0.25 μM) and > 32.00 µM in assay [2] (repeat 2, 32-0.016 μM). The “MIC E. coli ATCC 8739” value was > 64.00 µM in assay [3] (repeat 1, 64-0.25 μM) and > 32.00 µM in assay [3] (repeat 2, 32-0.016 μM). Further, the “MIC P. aeruginosa ATCC 9027” value in assay [4] (repeat 1, 64-0.25 μM) was > 64.00 µM; in assay [4] (repeat 2, 32-0.016 μM) it was > 32.00 µM.
